Experimental findings from patent publication US20210246115A1 (Bioimics AB, priority 2017, published 2021) are described below.

Assay [1] relates to Escherichia coli (ATCC25922). The assay is described as follows: MIC, broth microdilution (CLSI), Escherichia coli. The following applies: Escherichia coli, ATCC25922, read-out: E. coli ATCC 25922 MIC, Table XIII. (Dilution methods test growth across graded concentrations, often in twofold steps.)
The subject of assay [2] is E. coli RNase P RNA, M1 RNA. The assay is described as follows: Inhibition of bacterial RNase P activity, IC50 determination (cleavage of pATSerUG by M1 RNA). The assay is classed as biochemical. The following applies: NI: No inhibition.
Assay [3] has as its system Staphylococcus aureus (ATCC25923). Put plainly: MIC, broth microdilution (CLSI), Staphylococcus aureus ATCC25923. The settings on record: Staphylococcus aureus, ATCC25923, read-out: S. aureus ATCC 25923 MIC.

Converted amounts (≈) assume the structure as drawn. Counter-ions that a name gives are not always drawn.

Turning to `Cl.NC1CCC(NC(=O)CCc2cn(CC3CCCCC3)c3ccc(-c4ccccc4Cl)cc23)CC1` [Compound 239, N-((1S,4S)-4-aminocyclohexyl)-3-(5-(2-chlorophenyl)-1-(cyclohexylmethyl)-1H-indol-3-yl)propanamide hydrochloride salt], the results for the MIC in assay [1] and in assay [3] were 271 µg/mL and 4 µg/mL, respectively. Also, in assay [2], the IC50 (commonly the concentration at which inhibition is half-maximal) stood at 2.9 µM.

Turning to `Cl.O=C(Cc1cn(CC2CCC(F)(F)CC2)c2ccc(Br)cc12)NC1CCNCC1` [Compound 277, 2-(5-bromo-1-((4,4-difluorocyclohexyl)methyl)-1H-indol-3-yl)-N-(piperidin-4-yl)acetamide hydrochloride salt], the MIC (usually the lowest concentration that inhibits growth of the organism) turned out to be 129 µg/mL in assay [1] and 65 µg/mL in assay [3]. This compound also displayed an IC50 in assay [2] of 229 µM.

Regarding `Cc1ccccc1-c1ccc2c(c1)c(CCN[C@H]1CC[C@H](N)CC1)cn2CC1CCCCC1` [Compound 244, (1R,4R)-N1-(2-(1-(cyclohexylmethyl)-5-(o-tolyl)-1H-indol-3-yl)ethyl)cyclohexane-1,4-diamine hydrochloride salt], the MIC in assay [1] and in assay [3] was 2 µg/mL in each case. Further, it took 14.7 µM to reach half-maximal inhibition in assay [2] (IC50).

As to `Cl.N[C@H]1CC[C@H](NC(=O)CC(c2cccc(C(F)(F)F)c2)c2cn(CC3CCCCC3)c3ccccc23)CC1` (stereo partly drawn) [Compound 129, N-((1R,4R)-4-aminocyclohexyl)-3-(1-(cyclohexylmethyl)-1H-indol-3-yl)-3-(3-(trifluoromethyl)phenyl) propanamide hydrochloride salt], the MIC in assay [1] was above 512 µg/mL; in assay [3], 4 µg/mL. Besides, the IC50 in assay [2] is 13 µM.

As for `Cc1cccc(C(CC(=O)N[C@H]2CC[C@H](N)CC2)c2cn(Cc3ccccc3)c3ncccc23)c1.Cl` (stereo partly drawn) [Compound 71, N-((1R,4R)-4-aminocyclohexyl)-3-(1-benzyl-1H-pyrrolo[2,3-b]pyridin-3-yl)-3-(m-tolyl)propanamide hydrochloride salt], the MIC in assay [1] was above 512 µg/mL; in assay [3], 258 µg/mL. Besides, in assay [2], half-maximal inhibition (IC50) required 269 µM.

For `Cc1cccc(C(CC(=O)NCCC2CCNCC2)c2cn(CC3CCCCC3)c3ccc(F)cc23)c1.Cl` (stereo not drawn) [Compound 119, 3-(1-(cyclohexylmethyl)-5-fluoro-1H-indol-3-yl)-N-(2-(piperidin-4-yl)ethyl)-3-(m-tolyl)propanamide hydrochloride salt], the MIC in assay [1] came to 32 µg/mL; in assay [3] it was 8 µg/mL. The IC50 in assay [2] was found to be 19 µM.

As for `Cc1cccc(C(CC(=O)N2CCC(CN)CC2)c2cn(CC3CCCCC3)c3ccccc23)c1.Cl` (stereo not drawn) [Compound 167, 1-(4-(aminomethyl)piperidin-1-yl)-3-(1-(cyclohexylmethyl)-1H-indol-3-yl)-3-(m-tolyl)propan-1-one hydrochloride salt], the results for the MIC in assay [1] and in assay [3] were 65 µg/mL and 8 µg/mL, respectively. In addition, inhibition in assay [2] was half-maximal at 14 µM (IC50).

With `Cl.N[C@H]1CC[C@H](NC(=O)CC(c2cn(CC3CCCCC3)c3ccccc23)C2CCCCC2)CC1` (stereo partly drawn) [Compound 162, N-((1R,4R)-4-aminocyclohexyl)-3-cyclohexyl-3-(1-(cyclohexylmethyl)-1H-indol-3-yl)propanamide hydrochloride salt], the MIC stood at 32 µg/mL in assay [1] and 4 µg/mL in assay [3]. In assay [2], this compound had an IC50 of 9 µM.

In the case of `N[C@H]1CC[C@H](NCCCc2cn(CC3CCCCC3)c3ccc(Br)cc23)CC1` [Compound 211, (1R,4R)-N1-(3-(5-bromo-1-(cyclohexylmethyl)-1H-indol-3-yl)propyl)cyclohexane-1,4-diamine hydrochloride salt], the MIC in assay [1] turned out to be 8 µg/mL; in assay [3], 4 µg/mL. In addition, the IC50 in assay [2] came to 20 µM.

With `Cc1cccc(C(CC(=O)NC2CCNCC2)c2cn(CC3CC3)c3ccccc23)c1.Cl` (stereo not drawn) [Compound 123, 3-(1-(cyclopropylmethyl)-1H-indol-3-yl)-N-(piperidin-4-yl)-3-(m-tolyl)propanamide hydrochloride salt], the MIC in assay [1] is 256 µg/mL; in assay [3], 64 µg/mL. The IC50 in assay [2] was found to be 389 µM.

With `Cc1cccc(C(CC(=O)N[C@H]2CC[C@H](N)CC2)c2cn(CC3CC3)c3ccccc23)c1.Cl` (stereo partly drawn) [Compound 124, N-((1R,4R)-4-aminocyclohexyl)-3-(1-(cyclopropylmethyl)-1H-indol-3-yl)-3-(m-tolyl)propanamide hydrochloride salt], the MIC in assay [1] turned out to be 256 µg/mL; in assay [3], 128 µg/mL. The compound also came in with an IC50 in assay [2] of 149 µM.

As for `CC(C)c1cccc(C(CC(=O)N[C@H]2CC[C@H](N)CC2)c2cn(CC3CCCCC3)c3ccccc23)c1.Cl` (stereo partly drawn) [Compound 198, N-((1R,4R)-4-aminocyclohexyl)-3-(1-(cyclohexylmethyl)-1H-indol-3-yl)-3-(3-isopropylphenyl) propanamide hydrochloride salt], the MIC in assay [1] was above 512 µg/mL; in assay [3], 17 µg/mL. The compound further displayed an IC50 in assay [2] of 12.7 µM.

As for `Cc1cc(F)cc(C(CC(=O)NC2CCC(N)CC2)c2cn(CC3CCCCC3)c3ccccc23)c1.Cl` [Compound 150, N-((1S,4S)-4-aminocyclohexyl)-3-(1-(cyclohexylmethyl)-1H-indol-3-yl)-3-(3-fluoro-5-methylphenyl) propanamide hydrochloride salt], the MIC was found to be 512 µg/mL in assay [1] and 8 µg/mL in assay [3]. In addition, the midpoint of inhibition in assay [2], the IC50, lay at 64 µM.

Consider `Cl.O=C(CCc1cn(CC2CCCCC2)c2ccccc12)NCCC1CCNCC1` [Compound 117, 3-(1-(cyclohexylmethyl)-1H-indol-3-yl)-N-(2-(piperidin-4-yl)ethyl)propanamide hydrochloride salt], for which the MIC in assay [1] and in assay [3] was 256 µg/mL each time. 166 µM corresponded to half-maximal inhibition in assay [2] (IC50).

Regarding `Cc1cccc(C(CC(=O)Nc2ccc(N3CCCCC3)cc2)c2cn(CC3CCCCC3)c3ccccc23)c1.Cl` (stereo not drawn) [Compound 158, 3-(1-(cyclohexylmethyl)-1H-indol-3-yl)-N-(4-(piperidin-1-yl)phenyl)-3-(m-tolyl)propanamide hydrochloride salt], the MIC in assay [1] and in assay [3] was above 512 µg/mL in each case.

For the compound `Cl.Nc1ccc(NC(=O)CCc2cn(CC3CCCCC3)c3ccc(Br)cc23)cn1` [Compound 298, N-(6-aminopyridin-3-yl)-3-(5-bromo-1-(cyclohexylmethyl)-1H-indol-3-yl)propanamide hydrochloride salt], the MIC in assay [1] was above 512 µg/mL; in assay [3], 15 µg/mL.

`Cl.NC1CCC(NC(=O)Cc2cn(CC3CCCCC3)c3ccc(-c4cccc(OC(F)(F)F)c4)cc23)CC1` [Compound 240, N-((1S,4S)-4-aminocyclohexyl)-2-(1-(cyclohexylmethyl)-5-(3-(trifluoromethoxy)phenyl)-1H-indol-3-yl)acetamide hydrochloride salt]: the results for the MIC in assay [1] and in assay [3] were 289 µg/mL and 9 µg/mL, respectively.

For `Cl.N[C@H]1CC[C@H](NC(=O)CC(c2ccccc2)c2cn(CC3CCCCC3)c3ccccc23)CC1` (stereo partly drawn) [Compound 130, N-((1R,4R)-4-aminocyclohexyl)-3-(1-(cyclohexylmethyl)-1H-indol-3-yl)-3-phenylpropanamide hydrochloride salt], the MIC in assay [1] and in assay [3] was 64 µg/mL throughout.

`Cc1cccc(C(CC(=O)N[C@H]2CC[C@H](O)CC2)c2cn(CC3CCCCC3)c3ccccc23)c1` (stereo partly drawn) [Compound 210, 3-(1-(cyclohexylmethyl)-1H-indol-3-yl)-N-((1R,4R)-4-hydroxycyclohexyl)-3-(m-tolyl)propanamide]: the MIC in assay [1] and in assay [3] was above 512 µg/mL each time.

In the case of `Cc1cccc(C(CC(=O)NC2CCCCC2)c2cn(CC3CCCCC3)c3ccccc23)c1` (stereo not drawn) [Compound 208, N-cyclohexyl-3-(1-(cyclohexylmethyl)-1H-indol-3-yl)-3-(m-tolyl)propanamide], the MIC in assay [1] and in assay [3] was above 512 µg/mL throughout.

For the compound `Cc1cccc(C(CC(=O)Nc2ccc(N3CCNCC3)cc2)c2cn(CC3CCCCC3)c3ccccc23)c1.Cl` (stereo not drawn) [Compound 155, 3-(1-(cyclohexylmethyl)-1H-indol-3-yl)-N-(4-(piperazin-1-yl)phenyl)-3-(m-tolyl)propanamide hydrochloride salt], the MIC in assay [1] and in assay [3] was above 512 µg/mL throughout.

As for `COc1ccccc1-c1ccc2c(c1)c(C(CC(=O)N[C@H]1CC[C@H](N)CC1)c1cccc(C)c1)cn2CC1CCCCC1.Cl` (stereo partly drawn) [Compound 219], the MIC in assay [1] is above 512 µg/mL; in assay [3], 10 µg/mL.

As for `Cc1cccc(C(CC(=O)NCCN2CCCC2)c2cn(Cc3ccccc3)c3ccccc23)c1.Cl` (stereo not drawn) [Compound 3, 3-(1-benzyl-1H-indol-3-yl)-N-(2-(pyrrolidin-1-yl)ethyl)-3-(m-tolyl)propanamide hydrochloride salt], the values for the MIC in assay [1] and in assay [3] were above 512 µg/mL and 32 µg/mL, respectively.

For `Cc1cccc(C(CC(=O)NC2CCNC(=O)C2)c2cn(CC3CCCCC3)c3ccc(Br)cc23)c1` (stereo not drawn) [Compound 296, 3-(5-bromo-1-(cyclohexylmethyl)-1H-indol-3-yl)-N-(2-oxopiperidin-4-yl)-3-(m-tolyl)propanamide hydrochloride salt], the MIC in assay [1] and in assay [3] was above 512 µg/mL in each case.

Take `Cl.Cl.N[C@H]1CC[C@H](NCCC(c2cn(C3CCCCC3)c3ccccc23)C2CCCCC2)CC1` (stereo partly drawn) [Compound 378, ((1R,4R)-N1-(3-cyclohexyl-3-(1-cyclohexyl-1H-indol-3-yl)propyl)cyclohexane-1,4-diamine salt]: the IC50 in assay [2] was found to be 22 µM.

Turning to `CCOP(=O)(NCCC1CCN(C(=O)CC(c2cccc(C)c2)c2cn(CC3CCCCC3)c3ccccc23)CC1)OCC` (stereo not drawn) [Compound 227, diethyl (2-(1-(3-(1-(cyclohexylmethyl)-1H-indol-3-yl)-3-(m-tolyl)propanoyl)piperidin-4-yl)ethyl)phosphoramidate], the MIC was above 512 µg/mL in assay [1] and 318 µg/mL (≈ 511 µM) in assay [3].

For `Cc1cccc(C(CC(=O)NC2CCNCC2)c2cn(Cc3ccccc3)c3cnccc23)c1` (stereo not drawn) [Compound 90, 3-(1-benzyl-1H-pyrrolo[2,3-c]pyridin-3-yl)-N-(piperidin-4-yl)-3-(m-tolyl)propanamide hydrochloride salt], half-maximal inhibition in assay [2] (IC50) was put at 950 µM.
